In brackets after ≈: the same amount, converted by molar mass. Activity calls are given as the source filed them. No cut-off for these calls is given here.
Experiments:
HL-60 [1] = experiment: Induction of apoptosis in human HL60 cells assessed as increase in apoptotic cells after 24 hrs by acridine orange/ethidium bromide staining based fluorescence microscopy; type: functional, cell-based
[2] = Cytotoxicity against human HCT116 cells assessed as reduction in cell viability at 25 ug/mL after 72 hrs by MTT assay; type: functional, HCT-116
[3] = Cytotoxicity against human OVCAR8 cells assessed as reduction in cell viability at 25 ug/mL after 72 hrs by MTT assay; type: functional, OVCAR-8
[4] = Cytotoxicity against human SF295 cells assessed as reduction in cell viability at 25 ug/mL after 72 hrs by MTT assay; type: functional, SF-295
[5] = Cytotoxicity against human OVCAR8 cells after 72 hrs by MTT assay; type: functional, OVCAR-8
[6] = Cytotoxicity against human SF295 cells after 72 hrs by MTT assay; type: functional, SF-295
[7] = Cytotoxicity against human HCT116 cells after 72 hrs by MTT assay; type: functional, HCT-116
[8] = Cytotoxicity against human HL60 cells after 72 hrs by MTT assay; type: functional, HL-60
[9] = Cytotoxicity against mouse L929 cells after 72 hrs by MTT assay; type: cell-based; conditions: read-out: RC50
HL-60 [10] = experiment: Induction of apoptosis in human HL60 cells assessed as chromatin condensation at 2.5 to 10 uM after 24 hrs by giemsa staining-based light microscopy analysis; type: functional, cell-based
HL-60 [11] = experiment: Induction of cell cycle arrest in human HL60 cells assessed as accumulation at sub-G0/G1 phase at 2.5 uM after 24 hrs by annexin V/propidium iodide staining based flow cytometry (reference value: 6.10 +/- 0.28 %); type: functional
HL-60 [12] = experiment: Induction of apoptosis in human HL60 cells assessed as intranuclear vacuoles at 2.5 to 10 uM after 24 hrs by giemsa staining-based light microscopy analysis; type: functional, cell-based
HL-60 [13] = experiment: Induction of apoptosis in human HL60 cells assessed as cytoplasmic budding at 2.5 to 10 uM after 24 hrs by giemsa staining-based light microscopy analysis; type: functional, cell-based
HL-60 [14] = experiment: Induction of apoptosis in human HL60 cells assessed as reduction in cellular and nuclear volumes at 2.5 to 10 uM after 24 hrs by giemsa staining-based light microscopy analysis; type: functional, cell-based
HL-60 [15] = experiment: Induction of apoptosis in human HL60 cells assessed as chromatolysis at 2.5 to 10 uM after 24 hrs by giemsa staining-based light microscopy analysis; type: functional, cell-based
HL-60 [16] = experiment: Induction of apoptosis in human HL60 cells assessed as decrease in viable cells after 24 hrs by acridine orange/ethidium bromide staining based fluorescence microscopy; type: functional, cell-based
HL-60 [17] = experiment: Induction of apoptosis in human HL60 cells assessed as increase in necrotic cells after 24 hrs by acridine orange/ethidium bromide staining based fluorescence microscopy; type: functional, cell-based
HL-60 [18] = experiment: Induction of apoptosis in human HL60 cells assessed as decrease in viable cells at 5 uM after 24 hrs by acridine orange/ethidium bromide staining based fluorescence microscopy; type: functional
HL-60 [19] = experiment: Induction of apoptosis in human HL60 cells assessed as decrease in viable cells at 10 uM after 24 hrs by acridine orange/ethidium bromide staining based fluorescence microscopy; type: functional
HL-60 [20] = experiment: Induction of apoptosis in human HL60 cells assessed as increase in apoptotic cells at 10 uM after 24 hrs by acridine orange/ethidium bromide staining based fluorescence microscopy; type: functional
HL-60 [21] = experiment: Induction of apoptosis in human HL60 cells assessed as increase in necrotic cells at 10 uM after 24 hrs by acridine orange/ethidium bromide staining based fluorescence microscopy; type: functional
HL-60 [22] = experiment: Induction of apoptosis in human HL60 cells assessed as decrease in viable cells at 2.5 uM after 24 hrs by acridine orange/ethidium bromide staining based fluorescence microscopy; type: functional
HL-60 [23] = experiment: Induction of apoptosis in human HL60 cells assessed as increase in apoptotic cells at 2.5 uM after 24 hrs by acridine orange/ethidium bromide staining based fluorescence microscopy; type: functional
HL-60 [24] = experiment: Induction of cell cycle arrest in human HL60 cells assessed as accumulation at sub-G0/G1 phase at 5 uM after 24 hrs by annexin V/propidium iodide staining based flow cytometry (reference value: 6.10 +/- 0.28 %); type: functional
HL-60 [25] = experiment: Induction of cell cycle arrest in human HL60 cells assessed as accumulation at sub-G0/G1 phase at 10 uM after 24 hrs by annexin V/propidium iodide staining based flow cytometry (reference value: 6.10 +/- 0.28 %); type: functional
HL-60 [26] = experiment: Induction of cell cycle arrest in human HL60 cells assessed as accumulation at G0/G1 phase at 2.5 uM after 24 hrs by annexin V/propidium iodide staining based flow cytometry (reference value: 45.81 +/- 3.16 %); type: functional
HL-60 [27] = experiment: Induction of cell cycle arrest in human HL60 cells assessed as accumulation at G0/G1 phase at 5 uM after 24 hrs by annexin V/propidium iodide staining based flow cytometry (reference value: 45.81 +/- 3.16 %); type: functional
HL-60 [28] = experiment: Induction of cell cycle arrest in human HL60 cells assessed as accumulation at G0/G1 phase at 10 uM after 24 hrs by annexin V/propidium iodide staining based flow cytometry (reference value: 45.81 +/- 3.16 %); type: functional
HL-60 [29] = experiment: Induction of cell cycle arrest in human HL60 cells assessed as accumulation at S phase at 2.5 uM after 24 hrs by annexin V/propidium iodide staining based flow cytometry (reference value: 27.64 +/- 2.15 %); type: functional
HL-60 [30] = experiment: Induction of cell cycle arrest in human HL60 cells assessed as accumulation at S phase at 5 uM after 24 hrs by annexin V/propidium iodide staining based flow cytometry (reference value: 27.64 +/- 2.15 %); type: functional
HL-60 [31] = experiment: Induction of cell cycle arrest in human HL60 cells assessed as accumulation at S phase at 10 uM after 24 hrs by annexin V/propidium iodide staining based flow cytometry (reference value: 27.64 +/- 2.15 %); type: functional
HL-60 [32] = experiment: Induction of cell cycle arrest in human HL60 cells assessed as accumulation at G2/M phase at 2.5 uM after 24 hrs by annexin V/propidium iodide staining based flow cytometry (reference value: 19.04 +/- 1.10 %); type: functional
HL-60 [33] = experiment: Induction of cell cycle arrest in human HL60 cells assessed as accumulation at G2/M phase at 5 uM after 24 hrs by annexin V/propidium iodide staining based flow cytometry (reference value: 19.04 +/- 1.10 %); type: functional
HL-60 [34] = experiment: Induction of cell cycle arrest in human HL60 cells assessed as accumulation at G2/M phase at 10 uM after 24 hrs by annexin V/propidium iodide staining based flow cytometry (reference value: 19.04 +/- 1.10 %); type: functional
HL-60 [35] = experiment: Induction of apoptosis in human HL60 cells assessed as mitochondrial depolarization after 24 hrs by rhodamine-123 as fluorescent dye based flow cytometry; type: functional, cell-based
HL-60 [36] = experiment: Induction of apoptosis in human HL60 cells assessed as phosphatidylserine externalization at 2.5 uM after 24 hrs by annexin V/propidium iodide staining based flow cytometry; type: functional
HL-60 [37] = experiment: Induction of apoptosis in human HL60 cells assessed as phosphatidylserine externalization at 5 uM after 24 hrs by annexin V/propidium iodide staining based flow cytometry; type: functional
HL-60 [38] = experiment: Induction of apoptosis in human HL60 cells assessed as phosphatidylserine externalization at 10 uM after 24 hrs by annexin V/propidium iodide staining based flow cytometry; type: functional
HL-60 [39] = experiment: Induction of apoptosis in human HL60 cells assessed as mitochondrial depolarization at 2.5 uM after 24 hrs by rhodamine-123 as fluorescent dye based flow cytometry; type: functional
HL-60 [40] = experiment: Induction of apoptosis in human HL60 cells assessed as mitochondrial depolarization at 5 uM after 24 hrs by rhodamine-123 as fluorescent dye based flow cytometry; type: functional
HL-60 [41] = experiment: Induction of apoptosis in human HL60 cells assessed as mitochondrial depolarization at 10 uM after 24 hrs by rhodamine-123 as fluorescent dye based flow cytometry; type: functional
HL-60 [42] = experiment: Induction of apoptosis in human HL60 cells assessed as DNA fragmentation after 24 hrs by annexin V/propidium iodide staining based flow cytometry; type: functional, cell-based
HT-29 = experiment: Cytotoxicity against human HT-29 cells; type: functional; conditions: read-out: ED50 (the source's name)

COc1ccc(Br)cc1C1=C(Br)C(=O)O/C1=C\c1ccc(C(F)(F)F)cc1
Activity (HL-60 [1]): Dose-dependent effect | Activity [2]: 98.22% | Activity [3]: 99.5% | Activity [4]: 91.06% | RC50 [5]: 2.74 µM | RC50 [6]: 4.9 µM | RC50 [7]: 2.98 µM | RC50 [8]: 3.58 µM | CC50 at 72 h [9]: > 50 µM | Activity (HL-60 [10]): Active | Activity (HL-60 [11]): 15.27% | Activity (HL-60 [12]): Active | Activity (HL-60 [13]): Active | Activity (HL-60 [14]): Active | Activity (HL-60 [15]): Active | Activity (HL-60 [16]): Dose-dependent effect | Activity (HL-60 [17]): Dose-dependent effect | Activity (HL-60 [18]): 38.8% | Activity (HL-60 [19]): 11.8% | Activity (HL-60 [20]): 71.5% | Activity (HL-60 [21]): 16.7% | Activity (HL-60 [22]): 67.1% | Activity (HL-60 [23]): 31.3% | Activity (HL-60 [24]): 23.17% | Activity (HL-60 [25]): 48.52% | Activity (HL-60 [26]): 72.81% | Activity (HL-60 [27]): 72.43% | Activity (HL-60 [28]): 31.64% | Activity (HL-60 [29]): 13.75% | Activity (HL-60 [30]): 12.93% | Activity (HL-60 [31]): 11.81% | Activity (HL-60 [32]): 5.92% | Activity (HL-60 [33]): 2.86% | Activity (HL-60 [34]): 9.12% | Activity (HL-60 [35]): Dose-dependent effect | Activity (HL-60 [36]): 16.2% | Activity (HL-60 [37]): 33.3% | Activity (HL-60 [38]): 48.1% | Activity (HL-60 [39]): 35.1% | Activity (HL-60 [40]): 47% | Activity (HL-60 [41]): 68% | Activity (HL-60 [42]): Dose-dependent effect

O=C1O/C(=C\c2ccc(O)c(Br)c2)C(c2ccc(O)cc2)=C1Cl
EC50 (HT-29): 1.2 µg/mL (≈ 3.05 µM)

COc1ccc(Br)cc1C1=C(Br)C(=O)O/C1=C\c1ccc(F)cc1
Activity [2]: 94.87% | Activity [3]: 94.68% | Activity [4]: 82.06% | RC50 [5]: 5.17 µM | RC50 [6]: 15.44 µM | RC50 [7]: 13.06 µM | RC50 [8]: 9.8 µM
